Experimental data: paper PMC3805332, “Synthesis of α-Glucan in Mycobacteria Involves a Hetero-octameric Complex of Trehalose Synthase TreS and Maltokinase Pep2” (ACS Chemical Biology, 2013)

Tests used:
M. smegmatis TreS = molecular target: T1, M. smegmatis TreS (Mycolicibacterium smegmatis, UniProt A0R6E0); experiment: hexokinase/pyruvate kinase/lactate dehydrogenase coupled NADH fluorescence; format: biochemical; details: hydrolysis to glucose; HEPES-NaOH pH 7.5, 1 mM MgCl2, trehalose 0-25 mM, TreS 0.4 μM
T1 construct: preparation of M. smegmatis TreS not described in main text
T1 sequence (A0R6E0 1-593): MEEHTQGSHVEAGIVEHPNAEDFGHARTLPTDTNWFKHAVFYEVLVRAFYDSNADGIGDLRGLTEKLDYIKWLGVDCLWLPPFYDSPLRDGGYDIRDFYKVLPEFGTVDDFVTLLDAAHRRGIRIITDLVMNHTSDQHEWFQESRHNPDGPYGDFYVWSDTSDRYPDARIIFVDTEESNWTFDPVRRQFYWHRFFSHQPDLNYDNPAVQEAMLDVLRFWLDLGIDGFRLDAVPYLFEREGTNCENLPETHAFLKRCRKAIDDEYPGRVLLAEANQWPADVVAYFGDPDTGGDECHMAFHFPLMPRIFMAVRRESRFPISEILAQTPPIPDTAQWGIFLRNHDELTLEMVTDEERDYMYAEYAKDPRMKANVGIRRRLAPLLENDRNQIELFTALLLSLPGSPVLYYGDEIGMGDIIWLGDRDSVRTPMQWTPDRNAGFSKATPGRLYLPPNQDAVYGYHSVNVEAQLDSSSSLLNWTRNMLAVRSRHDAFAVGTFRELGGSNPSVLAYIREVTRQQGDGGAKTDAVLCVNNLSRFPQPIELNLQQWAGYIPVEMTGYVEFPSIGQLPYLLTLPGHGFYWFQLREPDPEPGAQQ

[1] = molecular target: TreS (trehalose synthase) (Mycobacterium tuberculosis, UniProt P9WQ19)
Sequence of TreS (trehalose synthase) (P9WQ19 whole entry): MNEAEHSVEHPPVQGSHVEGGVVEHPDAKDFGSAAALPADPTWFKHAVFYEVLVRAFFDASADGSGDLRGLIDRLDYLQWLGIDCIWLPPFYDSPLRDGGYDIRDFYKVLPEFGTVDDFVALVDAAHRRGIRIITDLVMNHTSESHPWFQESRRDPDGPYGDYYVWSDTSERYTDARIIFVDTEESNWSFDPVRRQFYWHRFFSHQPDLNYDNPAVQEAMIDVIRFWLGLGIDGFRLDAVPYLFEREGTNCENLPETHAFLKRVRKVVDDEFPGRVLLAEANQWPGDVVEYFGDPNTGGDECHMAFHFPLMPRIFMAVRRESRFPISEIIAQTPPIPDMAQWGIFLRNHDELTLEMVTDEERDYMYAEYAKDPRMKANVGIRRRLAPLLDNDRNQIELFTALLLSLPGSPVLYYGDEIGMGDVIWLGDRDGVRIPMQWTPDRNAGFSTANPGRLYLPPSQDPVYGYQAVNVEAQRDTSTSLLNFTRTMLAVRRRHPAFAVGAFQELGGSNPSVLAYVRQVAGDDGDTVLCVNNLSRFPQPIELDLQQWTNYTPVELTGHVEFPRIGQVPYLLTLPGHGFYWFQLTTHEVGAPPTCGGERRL

OC[C@H]1O[C@H](O[C@H]2O[C@H](CO)[C@@H](O)[C@H](O)[C@H]2O)[C@H](O)[C@@H](O)[C@@H]1O [trehalose]
hexokinase/pyruvate kinase/lactate dehydrogenase coupled NADH fluorescence (M. smegmatis TreS): we monitored M. smegmatis TreS-catalyzed conversion of trehalose to glucose in an enzyme-coupled continuous assay
end-point thin layer chromatography [1]: Incubation of TreS with trehalose or maltose interconverted the substrates

OC[C@H]1O[C@H](O[C@H]2[C@H](O)[C@@H](O)C(O)O[C@@H]2CO)[C@H](O)[C@@H](O)[C@@H]1O (stereo partly drawn) [maltose]
end-point thin layer chromatography [1]: Incubation of TreS with trehalose or maltose interconverted the substrates
